# Measurements as given in US20110212434A1, “NOVEL HIV-BASED RECOMBINANT VIRAL CLONES AND USE THEREOF IN ANALYTICAL METHODS” (priority 2004, published 2011).
# System: virus with the mutations M41L, K07R, T215F, K219Q
# Experiment: Determination system for phenotypic resistances to antiretroviral drugs (renilla activity, recombinant viral clones)
# Assay type: cell-based, HIV
# Conditions: K219Q versus wild type virus, FIG. 2b
# Experimental: It can be schematically seen in FIGS. 1a and 1b how the viral particles are produced in culture supernatants during the 48 hours following transfection of the recombinat virus carrying viral sequences amplified from patients's plasma in 293T cells. The 293T cell line was obtained from the Deposit of the ATCC. The progeny of recombinant viruses are collected 48 hours after transfection in and used to infect the SSPA-B7 clone as target. This cellular clone was obtained by the applicant from the MT-2 cell line by means of transfection of an expression vector of the gene CCR5 provided with a resistance marker for Genetycin. Expression of both major viral coreceptors (CCR5 as a transgene and CXCR4 naturally) allows the infection with viral carrying different envelopes that use CCR5, CXCR4 receptors or both. […] The capacity of the viruses to complete a replication cycle is quantified by measuring the luciferase activity in the target cells. When phenotypic resistance to protease inhibitors is analyzed, the drug should be added to the producer cell (293-T) because viral morphogenesis driven by the protease is generated in this step of the viral cycle. In contrast, phenotypic resistance towards inhibitors of reverse transcriptase and of entry is measured by adding the drugs to the infected cells because such processes (entry and retrotranscription) take place in the target cell. […]
structure (smiles),measurement,value
Cc1cn([C@H]2C[C@H](N=[N+]=[N-])[C@@H](CO)O2)c(=O)[nH]c1=O [AZT],Fold (AZT resistance),36
